Source: US20230174535A1, “INHIBITORS OF FIBROBLAST GROWTH FACTOR RECEPTOR KINASES” (Kinnate Biopharma Inc., priority 2019, published 2023)
Read-outs that look alike come from different tables or passages of the source.

Columns and labels:
[1] = system: SNU-16 cells; assay: SNU-16 cell-based viability assay (CellTiter-Glo); settings: Homo sapiens
Source text: For determining the covalent nature of compounds, a simple cell-based assay was employed. SNU-16 cells were obtained from ATCC (Cat #CRL-5974; American Type Culture Collection; Manassas, Va. 20110) for this assay. SNU-16 is a cultured line derived in 1987 by J. Park and associates from ascites of a patient with poorly differentiated gastric carcinoma of the stomach, and cells were collected from the patient prior to chemotherapy. The cells express the surface glycoproteins carcinoembryonic antigen (CEA) and TAG-72. No evidence of amplification or rearrangements has been noted in the N-myc, L-myc, myb and EGF receptor genes, although the c-myc proto-oncogene is amplified. There was no expression of the following genes: N-myc, L-myc, c-cis, IGF-2, or gastrin releasing peptide. These cells are known to have an FGFR2 amplification and are therefore relevant for the compound testing at hand (1). For this assay, cells were plated on poly-D-lysine to maintain attachment. Cells were either exposed to compound for 2 hours or 72 hours to test the ability of the compound to stay on target after binding. Briefly, 80 μL cell solution containing 5000 SNU-16 cells was plated per well into 96-well Poly-D-Lysine Cellware plate and incubated in 37° C. incubator overnight to facilitate adherence. Compounds were solubilized fresh from powder as dimethylsulfoxide stocks (DMSO), and plated as half log, 9 point dilutions in DMSO and then plated into cell media containing RPMI1640+10% FBS for ease of transfer without disrupting cells. Total volume in cells was 100 uL. For cells exposed to compound for two hours, cells were incubated in 37° C. incubator for 2 hours, upon which time plates were removed and cells were centrifuged at 1500 rpm for 5 min, followed by removal of all supernatant, and the re-dispense 100 μL of RPMI1640+10% FBS per well. This was repeated twice. Plates were put back into the incubator for 72 hours. For cells exposed to compound for 72 hours, plates were removed from the incubator for the time of washing but not disturbed, and then placed back in the incubator without washing. Assay plates were read for total ATP by luminescent CTG signal at the end of the 72 hour incubation by adding 100 μL of CTG (Cell TiterGlo: Cat #G9241; Promega Corporation, Madison, Wis., 53711) per well, followed by gently agitating the contents for 2 min on the plate shaker, and incubating the plates for 10 min at room temperature in dark. […] Clin Cancer Res 2010; 16:5750-8.

[2] = target: T1, Human FGFR2 wildtype (Homo sapiens, UniProt P21802); assay: FGFR2 wildtype kinase assay (Reaction Biology HotSpot); format: biochemical; settings: ATP at Km; read-out: FGFR2 (WT) Km IC50
T1 construct: purchased Reaction Biology Corporation (contract assay; enzyme is the CRO's own)
T1 sequence (P21802 22-821): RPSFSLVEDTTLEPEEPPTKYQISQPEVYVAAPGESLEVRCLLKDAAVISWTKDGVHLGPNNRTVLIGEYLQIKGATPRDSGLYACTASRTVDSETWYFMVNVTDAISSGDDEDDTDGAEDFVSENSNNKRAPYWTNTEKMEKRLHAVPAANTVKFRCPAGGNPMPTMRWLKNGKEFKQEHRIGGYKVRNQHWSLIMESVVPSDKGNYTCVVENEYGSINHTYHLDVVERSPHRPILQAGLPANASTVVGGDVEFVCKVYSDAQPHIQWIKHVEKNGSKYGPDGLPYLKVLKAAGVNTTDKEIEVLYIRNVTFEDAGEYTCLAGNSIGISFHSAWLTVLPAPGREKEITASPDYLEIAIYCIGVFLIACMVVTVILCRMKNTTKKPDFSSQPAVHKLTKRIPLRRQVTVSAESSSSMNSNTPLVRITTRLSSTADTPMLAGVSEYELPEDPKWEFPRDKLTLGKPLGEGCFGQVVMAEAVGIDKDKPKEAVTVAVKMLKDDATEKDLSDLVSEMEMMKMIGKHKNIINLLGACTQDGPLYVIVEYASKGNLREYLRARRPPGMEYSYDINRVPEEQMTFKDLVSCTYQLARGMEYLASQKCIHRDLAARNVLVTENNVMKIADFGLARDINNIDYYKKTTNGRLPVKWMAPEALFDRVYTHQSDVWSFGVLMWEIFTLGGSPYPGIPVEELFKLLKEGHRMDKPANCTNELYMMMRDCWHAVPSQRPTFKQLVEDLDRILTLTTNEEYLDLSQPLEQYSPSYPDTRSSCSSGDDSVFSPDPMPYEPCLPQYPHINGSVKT
Description: (§1) Biochemical assays were run at Reaction Biology (Reaction Biology Corporation, 1 Great Valley Parkway, Suite 2, Malvern, Pa. 19355, USA). The Reaction Biology (http://www.reactionbiology.com) HotSpot assay platform was used to measure kinase/inhibitor interactions as described previously (Anastassiadis et al., 2011). In brief, for each reaction, kinase and substrate were mixed in a buffer containing 20 mM HEPES (pH 7.5), 10 mM MgCl2, 1 mM EGTA, 0.02% Brij35, 0.02 mg/mL BSA, 0.1 mM Na3VO4, 2 mM DTT, and 1% DMSO. All compounds were in powder form and freshly solubilized in DMSO for assays. Compounds were then added to each reaction mixture via acoustic dispensing using an ECHO 550 nanoliter dispenser. For Human FGFR2 wildtype testing, a peptide substrate, poly[Glu:Tyr] (4:1) was used to promote the reaction at a concentration of 0.2 mg/ml, with a final ATP concentration as determined by Reaction Biology. For Human FGFR2 (V565F) testing, a peptide substrate, poly[Glu:Tyr] (4:1) was used to promote the reaction at a concentration of 0.2 mg/ml, with a final ATP concentration as determined by Reaction Biology. Compounds were tested in 10-dose IC50 mode with a 3-fold serial dilution. After a 20-min incubation, ATP (Sigma-Aldrich, St. Louis, Mo. 63178) and [g33P] ATP (specific activity 10 microCi/microliter) purchased at PerkinElmer (Boston, Mass., 02118 Cat #BLU 003H250UC) were added at a final total concentration of 10 mM. Reactions were carried out at room temperature for 2 hr and spotted onto P81 ion exchange cellulose chromatography paper (Reaction Biology). Filter paper was washed in 0.75% phosphoric acid to remove unincorporated ATP. The percent remaining kinase activity relative to a vehicle-containing (DMSO) kinase reaction was calculated for each kinase/inhibitor pair. IC50 values were calculated using Prism 5 (GraphPad).

[3] = target: T2, Human FGFR2 (V565F) (Homo sapiens, UniProt P21802, V564F); assay: FGFR2 V565F mutation kinase assay (Reaction Biology HotSpot); format: biochemical; settings: 100 uM ATP
T2 construct: purchased Reaction Biology Corporation (contract assay; enzyme is the CRO's own)
T2 sequence (P21802 22-822 isoform P21802-3 V565F limits assumed): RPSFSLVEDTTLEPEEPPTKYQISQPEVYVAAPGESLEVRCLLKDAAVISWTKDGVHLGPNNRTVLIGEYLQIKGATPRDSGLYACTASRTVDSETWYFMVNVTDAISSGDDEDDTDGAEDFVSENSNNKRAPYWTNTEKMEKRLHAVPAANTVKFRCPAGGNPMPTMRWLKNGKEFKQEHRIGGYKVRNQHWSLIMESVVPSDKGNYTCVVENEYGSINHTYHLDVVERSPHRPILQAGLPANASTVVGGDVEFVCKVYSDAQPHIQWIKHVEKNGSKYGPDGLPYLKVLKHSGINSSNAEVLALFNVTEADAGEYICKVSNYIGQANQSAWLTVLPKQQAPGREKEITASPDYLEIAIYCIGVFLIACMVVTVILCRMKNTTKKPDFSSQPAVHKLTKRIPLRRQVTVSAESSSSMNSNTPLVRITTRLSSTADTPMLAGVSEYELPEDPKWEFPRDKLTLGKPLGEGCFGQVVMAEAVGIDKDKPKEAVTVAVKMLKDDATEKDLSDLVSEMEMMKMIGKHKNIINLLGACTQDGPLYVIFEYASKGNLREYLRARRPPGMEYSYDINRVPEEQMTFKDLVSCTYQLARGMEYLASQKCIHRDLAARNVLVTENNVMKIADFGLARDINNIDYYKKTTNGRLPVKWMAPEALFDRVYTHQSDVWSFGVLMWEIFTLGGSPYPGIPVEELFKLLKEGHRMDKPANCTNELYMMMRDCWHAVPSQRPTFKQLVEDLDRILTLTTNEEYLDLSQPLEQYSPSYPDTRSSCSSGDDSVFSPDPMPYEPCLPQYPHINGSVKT
Description: as §1, with “ATP (specific activity 10 microCi/microliter) purchased at PerkinElmer (Boston, Mass., 02118 Cat #BLU 003H250UC) were added at a final total concentration of 10 mM.” left out

[4] = cells exposed to compound for 2 hours, washed, read after 72 hour incubation, read-out: SNU-16 IC50 (nM) 2 h
[5] = cells exposed to compound for 72 hours, no washing, read-out: SNU-16 IC50 (nM) 72 h

| IC50 [1, 4] [nM] | IC50 [1, 5] [nM] | IC50 [2] [µM] | IC50 [3] [µM] | Compound |
| --- | --- | --- | --- | --- |
| 1000 to 10000 | 10 to 100 | – | – | C=CC(=O)N1C[C@@H](c2cc(C#Cc3cc(OC)cc(OC)c3)c3c(N)ncnn23)C[C@@H]1COC (single isomer, unassigned) [Chemical Synthesis Example 1] |
| ≤ 10 | ≤ 10 | ≤ 0.01 | 0.01 to 0.1 | C=CC(=O)N1C[C@H](c2cc(C#Cc3cc(OC)cc(OC)c3)c3c(N)ncnn23)C[C@@H]1COC (single isomer, unassigned) [Chemical Synthesis Example 2] |
| 1000 to 10000 | 100 to 1000 | – | – | C=CC(=O)N1CC(c2cc(C#Cc3c(F)c(OC)cc(OC)c3F)c3c(N)ncnn23)C[C@@H]1COC (single isomer, unassigned) [Chemical Synthesis Example 3] |
| ≤ 10 | ≤ 10 | ≤ 0.01 | ≤ 0.01 | C=CC(=O)N1CC(c2cc(C#Cc3c(F)c(OC)cc(OC)c3F)c3c(N)ncnn23)C[C@@H]1COC (single isomer, unassigned) [Chemical Synthesis Example 4] |
| 1000 to 10000 | 100 to 1000 | – | – | C=CC(=O)N1CC(c2cc(C#Cc3cc(OC)cc(OC)c3F)c3c(N)ncnn23)C[C@@H]1COC (single isomer, unassigned) [Chemical Synthesis Example 5] |
| ≤ 10 | ≤ 10 | ≤ 0.01 | 0.01 to 0.1 | C=CC(=O)N1CC(c2cc(C#Cc3cc(OC)cc(OC)c3F)c3c(N)ncnn23)C[C@@H]1COC (single isomer, unassigned) [Chemical Synthesis Example 6] |
